For three molecules, IC50 results are on record in BindingDB's records for patent US20230295182 (Idorsia Pharmaceuticals, 2023).

One may read the IC50 as the concentration that inhibits the measured activity by half.

For this test, the target named is Galectin-3 (Homo sapiens, UniProt P17931). Nature of the test: Evaluation of Compound Inhibitory Activity (IC50). The protocol: Briefly, compounds are serially diluted in DMSO (working dilutions). ASF-coated 384 well plates are supplemented with 22.8 uL/well of biotinylated hGal-3 or hGal-1 in assay buffer (i.e. 300-1000 ng/mL biotinylated hGal-3 or hGal-1) to which 1.2 uL of compound working dilutions are added and mixed. Plates are incubated for 3 hours at 4 C., then washed with cold assay buffer (3x50 uL), incubated for 1 hour with 25 uL/well of a streptavidin-peroxidase solution (diluted in assay buffer to 80 ng/mL) at 4 C., followed by further washing steps with assay buffer (3x50 uL). Finally, 25 µL/well of ABTS substrate is added.
Chain of Galectin-3 (P17931 whole entry): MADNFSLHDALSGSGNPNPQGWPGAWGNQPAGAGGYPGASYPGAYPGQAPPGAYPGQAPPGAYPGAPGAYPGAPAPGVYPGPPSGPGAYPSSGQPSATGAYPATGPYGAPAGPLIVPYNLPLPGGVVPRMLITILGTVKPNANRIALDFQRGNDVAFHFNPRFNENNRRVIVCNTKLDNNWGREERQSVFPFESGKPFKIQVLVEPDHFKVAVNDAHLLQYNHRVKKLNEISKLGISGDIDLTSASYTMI

`OC[C@H]1O[C@H](CC2=NOC3(CCCCC3)C2)[C@H](OCC(F)F)[C@@H](n2cc(-c3cc(F)c(F)c(F)c3)nn2)[C@H]1O` [US20230295182, Example 1.67] displayed an IC50 of 230 nM.
Consider `CO[C@@H]1[C@@H](n2cc(-c3ccc(C)c(F)c3F)nn2)[C@@H](O)[C@@H](CO)O[C@@H]1CN1CC2(CCCCC2)NC1=O` [US20230295182, Example 4.01], for which the IC50 was determined as 46 nM.
The molecule `CO[C@@H]1[C@@H](n2cc(-c3cc(F)c(F)c(F)c3)nn2)[C@@H](O)[C@@H](CO)O[C@@H]1CC1=NOC2(CCC(C)CC2)C1` (stereo partly drawn) [US20230295182, Example 1.30] yielded an IC50 of 500 nM.
